We go through seven compounds from patent US4886884A, “Derivatives from cervinomycin based antibiotics” (The Kitazato Institute, priority 1986, dated 1989).

Converted amounts (≈) assume the structure as drawn. Read-outs that look alike come from different tables or passages of the source. Some results are limits rather than exact numbers.

The test system of data set [1] is Gram-positive and Gram-negative bacteria, mycoplasmas. The data set can be described thus: Antimicrobial activity (overall, in words). The data set is classed as cell-based.
Data set [2] relates to Escherichia coli KB-176 (NIHJ JC-2). In words: Antibacterial activity, minimum inhibitory concentration (MIC). The data set is classed as cell-based.
The subject of data set [3] is Peptococcus variabilis KB-235 (ATCC 14955). The description is as above. Type of data set: cell-based.
Data set [4] concerns Bacteroides fragilis KB-169 (ATCC 23749). The data set is described as above. Type of data set: cell-based.
Data set [5] relates to Mycoplasma gallisepticum KB-171 (S-6). The data set is described as above. The note with it: Mycoplasmoides gallisepticum. Type of data set: cell-based.
Data set [6] deals with Pseudomonas aeruginosa KB-115 (IFO 3080). The data set is described as above. The data set is classed as cell-based.
Data set [7] is described as follows: Acute toxicity test by oral administration. The note with it: mouse, in vivo.
Data set [8] has as its system Micrococcus luteus KB-212 (ATCC 9341). In words: Antibacterial activity, minimum inhibitory concentration (MIC). Type of data set: cell-based.
In data set [9] the test system is Klebsiella pneumoniae KB-214 (ATCC 10031). Described as above. The data set is classed as cell-based.
The test system of data set [10] is Proteus vulgaris KB-127 (IFO 3167). Described as above. The data set is classed as cell-based.
Data set [11] relates to Clostridium perfringens (ATCC 13124). In words: microbe, parasite or virus in culture. Type of data set: cell-based. The note with it: ATCC13124.
The subject of data set [12] is Bacillus cereus KB-143 (IFO 3001). In words: Antibacterial activity, minimum inhibitory concentration (MIC). Type of data set: cell-based.
Data set [13] can be described thus: Solubility in different solvents. The data set is classed as physicochemical. The note with it: organic solvent or mixture. From the text:
Compounds (1) of the present invention had the following solubilities in different solvents.

Data set [14] deals with Bacillus subtilis KB-211 (ATCC 6633). The data set can be described thus: Antibacterial activity, minimum inhibitory concentration (MIC). Type of data set: cell-based.
Data set [15] concerns Mycoplasma pneumoniae KB-173. The data set is described as above. Type of data set: cell-based.
For data set [16], the system named is Staphylococcus aureus KB-210 (ATCC 6538P). Described as above. Type of data set: cell-based. The note with it: ATCC6538P.
Data set [17] deals with Salmonella typhimurium KB-20. The description is as above. The data set is classed as cell-based. The note with it: Salmonella enterica.
In data set [18] the test system is Acholeplasma laidlawii KB-174 (PG-8). Described as above. Type of data set: cell-based.
Data set [19] has as its system Clostridium difficile (ATCC 9689). The description is as above. Type of data set: cell-based. The note with it: Clostridioides difficile, ATCC9689.
The subject of data set [20] is Bifidobacterium bifidum (ATCC 11146). The description is as above. Type of data set: cell-based.
Data set [21] is described as follows: in vivo. The note with it: mouse, po.
Setting [22] is: acetic acid, read-out: Solubility in Acetic acid.
Where [23] appears, read: dmso, read-out: Solubility in DMSO.
[24] abbreviates: methanol, read-out: Solubility in Methanol.
The mark [25] stands for this setting: NIHJJC2, inoculum 1 × 10^6 cells/ml, 37° C., read-out: MIC.
The mark [26] stands for this setting: inoculum 1 × 10^6 cells/ml, 37° C., read-out: MIC.
Setting [27] is: ATCC23749, inoculum 1 × 10^6 cells/ml, 37° C., read-out: MIC.
Where [28] appears, read: IFO3080, inoculum 1 × 10^6 cells/ml, 37° C., read-out: MIC.
Where [29] appears, read: ATCC11146, inoculum 1 × 10^6 cells/ml, 37° C., read-out: MIC.
Where [30] appears, read: ATCC9341, inoculum 1 × 10^6 cells/ml, 37° C., read-out: MIC.
The mark [31] stands for this setting: ATCC10031, inoculum 1 × 10^6 cells/ml, 37° C., read-out: MIC.
[32] abbreviates: IFO3167, inoculum 1 × 10^6 cells/ml, 37° C., read-out: MIC.
[33] abbreviates: IFO3001, inoculum 1 × 10^6 cells/ml, 37° C., read-out: MIC.
Where [34] appears, read: ATCC6633, inoculum 1 × 10^6 cells/ml, 37° C., read-out: MIC.

Regarding `COc1cc2oc3c(c(=O)c2cc1OC)C(=O)c1c(ccc2c(C)c4c(c(OC)c12)C(=O)N1CCOC1(C)C4)C3=O` (centres unmarked) [C,O-dimethyl Cervinomycin A2], the antimicrobial activity entry in data set [1] was “substantially equal to those of Cervinomycin A1 and A2”.

As for `COc1cc2oc3c(c(=O)c2cc1OC)C(=O)c1c(ccc2c(C)c4c(c(O)c12)C(=O)N1CCOC1(C)C4)C3=O` (centres unmarked) [C-methyl Cervinomycin A2], the antimicrobial activity result in data set [1] is “substantially equal to those of Cervinomycin A1 and A2”.

Regarding `COc1cc2oc3c(O)c4ccc5cc6c(c(O)c5c4c(O)c3c(=O)c2cc1OC)C(=O)N1CCOC1(C)C6` (centres unmarked) [Cervinomycin A1, reference compound], the MIC in [2] (NIHJJC2) was above 10 µg/mL; in data set [3], 0.62 µg/mL (≈ 1.17 µM); in data set [4] (ATCC23749), 1.25 µg/mL (≈ 2.36 µM); in data set [5], 12.5 µg/mL (≈ 23.6 µM); in [6] (IFO3080) it was above 10 µg/mL; in [8] (ATCC9341) it was 5 µg/mL (≈ 9.44 µM). Further, the MIC in data set [9] (ATCC10031) is above 10 µg/mL; in [10] (IFO3167), above 10 µg/mL; in data set [11], 1.25 µg/mL (≈ 2.36 µM); in data set [12] (IFO3001) it was 10 µg/mL (≈ 18.9 µM); in data set [14] (ATCC6633), 2.5 µg/mL (≈ 4.72 µM); in [15] (KB173), 12.5 µg/mL (≈ 23.6 µM). The MIC in data set [16] was 5 µg/mL (≈ 9.44 µM); in data set [17] it was above 10 µg/mL; in data set [18], 12.5 µg/mL (≈ 23.6 µM). Moreover, the LD50 in [7] worked out at 320 mg/kg. The solubility in data set [13] (setting [22]) is 23 µg/mL (≈ 43.4 µM); in [13] (setting [23]), 78 µg/mL (≈ 147 µM); in data set [13] (setting [24]) it was 0.3 µg/mL (≈ 0.567 µM).

For the compound `CCC[C@@H]1C[C@@H](C(=O)N[C@@H]([C@H]2O[C@H](SC)[C@H](O)[C@@H](O)[C@H]2O)[C@H](C)Cl)N(C)C1` [Clindamycin, reference compound], the MIC in data set [2] (setting [25]) was above 10 µg/mL; in [3] (setting [26]), 0.16 µg/mL (≈ 0.376 µM); in data set [4] (setting [27]) it was 0.08 µg/mL (≈ 0.188 µM); in data set [19] (setting [26]), 6.3 µg/mL (≈ 14.8 µM); in [5] it was 0.62 µg/mL (≈ 1.46 µM); in data set [6] (setting [28]), above 10 µg/mL. Besides, the MIC in [20] (setting [29]) was 0.02 µg/mL (≈ 0.0471 µM); in data set [8] (setting [30]), 0.04 µg/mL (≈ 0.0941 µM); in data set [9] (setting [31]), above 10 µg/mL; in [10] (setting [32]) it was above 10 µg/mL; in data set [11], 0.4 µg/mL (≈ 0.941 µM); in data set [12] (setting [33]) it was 0.63 µg/mL (≈ 1.48 µM). The MIC in data set [14] (setting [34]) was 2.5 µg/mL (≈ 5.88 µM); in data set [15] (KB173), 0.62 µg/mL (≈ 1.46 µM); in data set [16] (setting [26]) it was 0.16 µg/mL (≈ 0.376 µM); in data set [17], above 10 µg/mL; in data set [18] it was 0.62 µg/mL (≈ 1.46 µM).

On to `COc1cc2oc3c(c(=O)c2cc1OC)C(=O)c1c(ccc2cc4c(c(OC(C)=O)c12)C(=O)N1CCOC1(C)C4)C3=O` (centres unmarked) [Monoacetyl Cervinomycin A2, monoacetyl Cervinomycin A2], for which the MIC in data set [2] (setting [25]) was above 10 µg/mL; in [4] (setting [27]), 0.1 µg/mL (≈ 0.176 µM); in [19] (setting [26]), 0.05 µg/mL (≈ 0.0878 µM); in data set [5] (setting [26]), 1.25 µg/mL (≈ 2.19 µM); in data set [6] (setting [28]), above 10 µg/mL; in [20] (setting [29]) it was 0.2 µg/mL (≈ 0.351 µM). Further, the MIC in data set [8] (setting [30]) is 0.4 µg/mL (≈ 0.702 µM); in data set [9] (setting [31]), above 10 µg/mL; in data set [10] (setting [32]), above 10 µg/mL; in [11], 0.02 µg/mL (≈ 0.0351 µM); in [12] (setting [33]), 0.16 µg/mL (≈ 0.281 µM); in [14] (setting [34]), 0.08 µg/mL (≈ 0.14 µM). Moreover, the MIC is 0.6 µg/mL (≈ 1.05 µM) in [15] (KB173, inoculum 1 × 10^6 cells/ml, 37° C., read-out: MIC); 0.31 µg/mL (≈ 0.544 µM) in data set [16] (setting [26]); above 10 µg/mL in data set [17] (setting [26]); 1.25 µg/mL (≈ 2.19 µM) in data set [18] (setting [26]). Also, the solubility in data set [13] (setting [22]) is 3000 µg/mL (≈ 5270 µM); in data set [13] (setting [23]), 5000 µg/mL (≈ 8780 µM); in data set [13] (setting [24]), 300 µg/mL (≈ 527 µM). In [21], this compound yielded an LD50 of 1800 mg/kg.

With `COc1cc2oc3c(c(=O)c2cc1OC)C(=O)c1c(ccc2cc4c(c(OC)c12)C(=O)N1CCOC1(C)C4)C3=O` (centres unmarked) [O-methyl Cervinomycin A2], the antimicrobial activity result in data set [1] was “substantially equal to those of Cervinomycin A1 and A2”.

Turning to `COc1cc2oc3c(OC(C)=O)c4ccc5cc6c(c(OC(C)=O)c5c4c(OC(C)=O)c3c(=O)c2cc1OC)C(=O)N1CCOC1(C)C6` (centres unmarked) [Triacetyl Cervinomycin A1, triacetyl Cervinomycin A1], the MIC in [2] (NIHJJC2) is above 10 µg/mL; in data set [3], 0.02 µg/mL (≈ 0.0305 µM); in data set [4] (ATCC23749), 0.1 µg/mL (≈ 0.153 µM); in data set [19], 0.05 µg/mL (≈ 0.0763 µM); in [5] it was 0.156 µg/mL (≈ 0.238 µM); in [6] (IFO3080) it was above 10 µg/mL. In addition, the MIC in data set [20] (ATCC11146) is 0.2 µg/mL (≈ 0.305 µM); in data set [8] (ATCC9341) it was 0.08 µg/mL (≈ 0.122 µM); in [9] (ATCC10031), above 10 µg/mL; in [10] (IFO3167), above 10 µg/mL; in data set [11], 0.02 µg/mL (≈ 0.0305 µM); in data set [12] (IFO3001), 0.31 µg/mL (≈ 0.473 µM). Also, the MIC is above 0.02 µg/mL in data set [14] (ATCC6633); 0.156 µg/mL (≈ 0.238 µM) in data set [15] (KB173); 0.16 µg/mL (≈ 0.244 µM) in [16]; above 10 µg/mL in data set [17]; 0.312 µg/mL (≈ 0.476 µM) in data set [18]. In data set [7], this compound returned an LD50 of 1620 mg/kg. The solubility in data set [13] (setting [22]) was above 25000 µg/mL; in data set [13] (setting [23]) it was above 50000 µg/mL; in data set [13] (setting [24]), 1400 µg/mL (≈ 2140 µM).

The LD50 is the dose at which mortality reaches 50%. High values mean a less toxic substance, low ones a more toxic substance. By solubility is commonly meant the concentration that dissolves in the medium under given conditions.
